Laboratory results reported in patent US12053451B2, “Arginase inhibitors and their therapeutic applications” (OncoArendi Therapeutics S.A., priority 2016, dated 2024).
Where a name gives a salt, the structure may show the parent alone.

What was measured:
[1] = target: T1, intracellular arginase in macrophages isolated from murine bone marrow (BMDM) (Mus musculus, UniProt Q61176); assay: Cell-based assay: intracellular arginase in bone marrow derived macrophages (BMDM), urea level; design: species or system Balb/c mice; conditions: murine BMDM with M-CSF and IL-4, urea measured 24 hours after compound; * = most potent diastereoisomer or mixture of diastereoisomers; read-out: Activity Class (BMDM)
T1 construct: endogenous in cells; host or cells: primary bone marrow derived macrophages from Balb/c mice, M-CSF and IL-4 treated
T1 sequence (Q61176 1-323): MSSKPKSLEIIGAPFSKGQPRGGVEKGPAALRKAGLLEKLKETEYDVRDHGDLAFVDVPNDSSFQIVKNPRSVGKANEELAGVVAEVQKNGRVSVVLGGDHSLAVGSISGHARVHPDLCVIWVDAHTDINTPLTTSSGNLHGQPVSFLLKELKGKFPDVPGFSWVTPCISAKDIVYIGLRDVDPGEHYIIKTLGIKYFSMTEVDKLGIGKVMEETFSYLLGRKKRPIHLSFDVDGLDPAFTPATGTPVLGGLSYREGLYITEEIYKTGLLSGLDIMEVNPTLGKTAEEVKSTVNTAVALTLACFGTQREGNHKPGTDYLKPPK
Protocol: Efficacy of Selected Examples Towards Intracellular Arginase in Macrophages Isolated from Murine Bone Marrow—Bone Marrow Derived Macrophages (BMDM)
Materials & Methods: The assay was performed according to modified literature protocol modification (Pineda-Torra I et al., Methods Mol Biol. 2015; 1339:101-9. Mia S et al. Scand J Immunol. 2014 May; 79(5):305-14). The femurs and tibias were isolated from Balb/c mice. Bones were cleaned from all attached tissues by using sterile swab without affecting the bone structure. Bones were sterilized by immersion in 70% ethanol for 5 min and then rinsed in PBS. The sides of the bones were cut off and flush with cold sterile PBS by using 26-G needle S into a 50 mL sterile tube with a cell strainer (Falcon™, Cat. No. U00149), until bone cavity appeared white. Then the cells were centrifuged (5 min at 500×G, 4° C.), washed twice with PBS and counted. Cells were plated in Petri dish in density of 1×10^6/mL and cultured in DMEM (Gibco, Cat. No. 31331-029) with 10% FBS, 1% pen-strep and 50 ng/mL M-CSF (PeproTech, Cat. No. 315-02), (37° C., 5% CO2). After five days cells were subcultured into P96 plate (BD, Cat. No. 353072) in density of 64 000 cells/well in medium supplemented with 50 ng/mL M-CSF and 20 ng/mL IL-4 (Biomibo Cat. No. 214-1). One day later exemplary compounds (dissolved in PBS) were added in several different concentrations and 24 hours later the level of urea was measured in each well (Jung D et al., Clin Chem. 1975, 21(8):1136-40). The concentration of urea in the absence of any compound was considered as the maximum. The absorbance of cell culture media (background) was subtracted from all the values.
(§1) For selected examples the activity class for ARG2 was estimated based on % of inhibition for 1 μM and 100 μM concentration of tested compounds.

[2] = target: T2, recombinant human arginase 1 (Homo sapiens, UniProt P05089); assay: Human arginase activity assay (urea measurement), arginase 1; assay type: biochemical; conditions: recombinant human arginase 1, pH 7.4, 37° C., 60 min; * = value for the most potent diastereoisomer or the mixture of diastereoisomers; read-out: Activity Class (ARG I)
T2 construct: purchased Biolegend 552502
T2 sequence (P05089 1-322): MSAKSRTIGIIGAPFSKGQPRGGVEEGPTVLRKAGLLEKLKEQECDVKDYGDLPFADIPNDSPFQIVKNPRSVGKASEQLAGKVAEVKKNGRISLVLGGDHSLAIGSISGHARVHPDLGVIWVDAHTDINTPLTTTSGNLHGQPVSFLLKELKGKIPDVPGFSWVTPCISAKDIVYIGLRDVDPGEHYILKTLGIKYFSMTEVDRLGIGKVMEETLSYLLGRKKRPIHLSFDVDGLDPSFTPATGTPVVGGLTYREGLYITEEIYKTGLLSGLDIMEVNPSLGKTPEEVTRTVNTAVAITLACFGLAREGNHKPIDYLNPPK
Protocol: (§2) Human Arginase Activity Assay
The assay was run in the 96-well plate format, each reaction in the total volume of 100 uL. The assay is based on urea measurement, which is a product of L-arginine enzymatic degradation. […] The color product is developed by adding a mixture of reagent A (4 mM oPA in 50 mM boric acid in 1M sulfuric acid, 0.03% Brij-35) and reagent B (4 mM NED in 50 mM boric acid in 1M sulfuric acid, 0.03% Brij-35) in equal proportions. The absorbance for each well was measured at 530 nm.
(§3) For positive control, only the enzyme and substrate were used, the negative controls contained substrate solution with assay buffer. After incubating the microtiter plate at 37° C. for 60 min 150 μL of mixed reagents A and B was added to each well to stop the reaction. Absorbance was measured (λ=530 nm) 20 minutes later, after color development. The urea production in the absence of any compound was considered the maximum arginase activity. The absorbance in the absence of arginase (background) was subtracted from all the values. The normalized OD was used to generate a concentration-response curve by plotting the percent of inhibition against log[concentration] of the compound and using regression analysis (GraphPad Prism 7.0) to compute the IC50 values.

[3] = target: T3, recombinant human arginase 2 (Homo sapiens, UniProt P78540); assay: Human arginase activity assay (urea measurement), arginase 2; assay type: biochemical; conditions: for selected examples class estimated from % of inhibition at 1 μM and 100 μM, * = most potent diastereoisomer or mixture of diastereoisomers, read-out: Activity Class (ARG II)
T3 construct: made in house; host or cells: CHO
T3 sequence (P78540 23-354): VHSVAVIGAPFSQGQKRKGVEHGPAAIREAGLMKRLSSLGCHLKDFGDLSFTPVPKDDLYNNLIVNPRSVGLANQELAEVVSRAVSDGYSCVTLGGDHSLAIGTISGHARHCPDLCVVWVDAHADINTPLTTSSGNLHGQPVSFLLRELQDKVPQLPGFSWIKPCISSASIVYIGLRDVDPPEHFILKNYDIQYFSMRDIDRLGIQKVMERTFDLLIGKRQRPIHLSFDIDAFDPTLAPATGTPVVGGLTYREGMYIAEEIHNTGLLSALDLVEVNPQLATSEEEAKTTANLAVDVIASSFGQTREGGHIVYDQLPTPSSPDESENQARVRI
Protocol: as §2
An enzymatic assay with recombinant human arginases 1 (Biolegend, Cat. No. 552502) and 2 (homemade in eukaryotic expression system of CHO, purified by FPLC) was used in order to assess inhibitory activity of the compounds. The assay was run in the 96-well plate format, each reaction in the total volume of 100 uL. The assay is based on urea measurement, which is a product of L-arginine enzymatic degradation. (Baggio et al. J Pharmacol. Exp. Ther. 1999, 290, 1409-1416). The color product is developed by adding a mixture of reagent A (4 mM oPA in 50 mM boric acid in 1M sulfuric acid, 0.03% Brij-35) and reagent B (4 mM NED in 50 mM boric acid in 1M sulfuric acid, 0.03% Brij-35) in equal proportions. The absorbance for each well was measured at 530 nm.
as §3, with “Briefly, to each well of a 96-well microtiter plate 40 μL of enzyme in the reaction assay buffer (pH 7.4, 100 mM sodium phosphate buffer, 130 mM NaCl, 1 mg/mL albumin), 50 μL of the test compound solution and 10 μL of enzyme substrate solution (L-arginine hydrochloride, natural pH 5.6, final concentration 20 mM and a cofactor—manganese chloride, final concentration 150 μM) was added. For” for “For”
as §1

IC50 [1] | IC50 [2] | IC50 [3] | SMILES
10000 to 100000 nM | 100 to 1000 nM | 100 to 1000 nM | NC1CCC(CCB(O)O)CC1(N)C(=O)O (single isomer, unassigned) [Example 48, 1,2-diamino-5-(2-boronoethyl)cyclohexanecarboxylic acid dihydrochloride]
100 to 1000 nM | 100 to 1000 nM | 100 to 1000 nM | CCN(CC)C[C@@H]1CC[C@@H](CCB(O)O)C[C@]1(N)C(=O)O (racemic) [Example 30, rac-(1R,2S,5R)-1-amino-5-(2-boronoethyl)-2-((diethylamino)methyl)cyclohexanecarboxylic acid dihydrochloride]
10000 to 100000 nM | 1 to 100 nM | 100 to 1000 nM | NCC1CCC(CCB(O)O)CC1(N)C(=O)O (stereo not shown) [Example 24, 1-Amino-2-(aminomethyl)-5-(2-boronoethyl)cyclohexane-1-carboxylic acid]
1 to 100 nM | 1 to 100 nM | 1 to 100 nM | CN(C)C[C@@H]1CC[C@@H](CCB(O)O)C[C@]1(N)C(=O)O [Example 38, (1R,2S,5R)-1-amino-5-(2-boronoethyl)-2-((dimethylamino)methyl)cyclohexanecarboxylic acid]
100 to 1000 nM | 1 to 100 nM |  | CC(C)(C)NC[C@@H]1CC[C@@H](CCB(O)O)C[C@]1(N)C(=O)O (racemic) [Example 33, rac-(1R,2S,5R)-1-amino-5-(2-boronoethyl)-2-((tert-butylamino)methyl)cyclohexanecarboxylic acid dihydrochloride]
100 to 1000 nM | 100 to 1000 nM |  | CC(C)N(C)C[C@@H]1CC[C@@H](CCB(O)O)C[C@]1(N)C(=O)O (racemic) [Example 32, rac-(1R,2S,5R)-1-amino-5-(2-boronoethyl)-2-((isopropyl(methyl)amino)methyl)cyclohexanecarboxylic acid]

The next lines start with the compound.

SMILES | IC50 [1] | IC50 [2] | IC50 [3]
NC1CC(CCB(O)O)CC(N)(C(=O)O)C1 (stereo not shown) [Example 56, 1,3-diamino-5-(2-boronoethyl)cyclohexanecarboxylic acid dihydrochloride] | > 100000 nM | 1000 to 10000 nM | 100 to 1000 nM
NC1(C(=O)O)CC(CCB(O)O)CC=C1Cc1ccc(Cl)cc1 (stereo not shown) [Example 53, 1-amino-5-(2-boronoethyl)-2-(4-chlorobenzyl)cyclohex-2-enecarboxylic acid hydrochloride] | 1000 to 10000 nM | 100 to 1000 nM | 1000 to 10000 nM
CC1(C)CCN(C[C@@H]2CC[C@@H](CCB(O)O)C[C@]2(N)C(=O)O)CC1 (racemic) [Example 26, rac-(1R,2S,5R)-1-amino-5-(2-boronoethyl)-2-((4,4-dimethylpiperidin-1-yl)methyl)cyclohexanecarboxylic acid dihydrochloride] | 1000 to 10000 nM | 100 to 1000 nM | 100 to 1000 nM
N[C@]1(C(=O)O)C[C@H](CCB(O)O)CC[C@H]1CN1CCc2ccccc2C1 (racemic) [Example 35, rac-(1R,2S,5R)-1-amino-5-(2-boronoethyl)-2-((3,4-dihydroisoquinolin-2(1H)-yl)methyl)cyclohexanecarboxylic acid dihydrochloride] | 10000 to 100000 nM | 100 to 1000 nM | 1000 to 10000 nM
N[C@@]1(C(=O)O)CCC[C@@H](CCB(O)O)C1 (racemic) [Example 10, rac-(1S,3R)-1-Amino-3-(2-boronoethyl)cyclohexane-1-carboxylic acid hydrochloride] | 10000 to 100000 nM | 1000 to 10000 nM | 1000 to 10000 nM
N[C@@]1(C(=O)O)COC[C@@H](CCB(O)O)C1 (racemic) [Example 61, rac-(3R,5S)-3-amino-5-(2-boronoethyl)tetrahydro-2H-pyran-3-carboxylic acid hydrochloride] | 1000 to 10000 nM | 100 to 1000 nM | 1000 to 10000 nM
CNC1(C(=O)O)C[C@H](CCB(O)O)CCC1CN (single isomer, unassigned) [Example 68, dihydrochloride] | 10000 to 100000 nM | 10000 to 100000 nM | 10000 to 100000 nM
CC1(C)[C@H]2C[C@@H]3OB(CC[C@@H]4CC[C@@H](CN5CCCC5)[C@@](N)(C(=O)O)C4)O[C@]3(C)[C@@H]1C2 [Example 45, (1R,2S,5R)-1-amino-2-(pyrrolidin-1-ylmethyl)-5-(2-((3aR,4R,6R,7aS)-3a,5,5-trimethylhexahydro-4,6-methanobenzo[d][1,3,2]dioxaborol-2-yl)ethyl)cyclohexanecarboxylic acid dihydrochloride] | 1 to 100 nM | 1 to 100 nM | 100 to 1000 nM
N[C@@H](CCCCB(O)O)C(=O)O [Comparative example 1, reference compound] | 1000 to 10000 nM | 100 to 1000 nM | 1000 to 10000 nM
